Test [1] has as its target T1, folate receptor beta (Homo sapiens (Human), UniProt P14207). Kind of test: Folate receptor SPR assay (biotinylated folate receptor beta on streptavidin chip). Format: binding. As to conditions: for Rmax: biotinylated folate receptor beta on streptavidin chip; for kd / Kd / kon: multi-cycle kinetics, 25° C., 1:1 model; for Kd: read-out: FOLR2Biotin - SPR Kd; for kon: pH 7.5, read-out: ka. On the procedure:
Folate receptor SPR binding assays were conducted on a Biacore 8K instrument (Cytiva) using biotinylated folate receptor beta (Acro Biosystems). Briefly, folate receptor was immobilized at -550 RU on a streptavidin chip (Cytiva) in 10 mM HEPES pH 7.5, 150 mM NaCl, 0.05% Tween 20. Multi-cycle kinetic studies were conducted with 8 compound concentrations using 2-fold dilutions in 10 mM HEPES pH 7.5, 150 mM NaCl, 0.05% Tween 20, 2% DMSO at 25° C. A flow rate or 75 μl/mmn with an association time of 120 s and a dissociation time of 600 s were used. Surfaces were regenerated with 4 M MgCl2 at 30 μl/min for 30 s. Data were fit to a 1:1 model to determine the reported binding parameters.

In another test the target is TNFα (Homo sapiens (Human), UniProt P01375). Kind of test: TNFα binding assay (time-resolved FRET, biotinylated TNFα). Conditions: 1 nM biotinylated TNFα, 80 nM probe, 16 hr incubation; read-out: TNF-HTRF-biotin. The method, then: TNFα binding was measured in black 96-well plates using a time-resolved FRET assay using a previously described fluorescence acceptor TNFα probe (Xiao et al J. Med. Chem. 2020). Biotinylated TNFα was purchased from Acro Biosystems. Binding reactions were conducted in 20 mM Hepes (pH 7.5) 10 mM MgCl2 0.015% Tween-20 0.05 mg/ml BSA 2% DMSO with 1 nM TNFα 0.5 nM Streptavidin-Tb and 80 nM probe. Test compounds were resuspended in DMSO and 3-fold serial dilutions were made at 100× final concentrations. Fluorescence was measured using λex=340 nm, λem=490, 520 nm on an SpectraMax M5e plate reader (Molecular Devices) after 16 hr incubation time. Dose responses were conducted in duplicate and normalized to the response with DMSO (high) and 100 nM (R)-3-(1-((3-chloro-7-fluoro-6-(2-(2-hydroxypropan-2-yl)pyrimidin-5-yl)-2-methyl-1,5-naphthyridin-4-yl)amino)ethyl)-4-fluorobenzonitrile (low) on each plate. IC50 values were determined by fitting to 4-parameter curves in GraphPad Prism.
On the technique in general: TR-FRET usually uses a lanthanide donor and a delayed reading to cut background.

Test [2] concerns the target TNFα and streptavidin immobilized FOL2R (Homo sapiens (Human), UniProt P01375+P14207). Kind of test: Ternary complex SPR assay. Format: binding. As to conditions: 10 nM compound, max response normalized to expected response; for TC 60 nM taggless TNF normalized: 60 nM untagged TNF; for TC 150 nM- tagless TNF Normalized: 150 nM untagged TNF; for TC 300 nM- tagless TNF Normalized: 300 nM untagged TNF. The method, then: Folate receptor-TNFα ternary complex SPR assays were conducted on a Biacore 8K instrument (Cytiva) using biotinylated folate receptor beta (Acro Biosystems). Folate receptor was immobilized at -1800 RU on a streptavidin chip (Cytiva) in 10 mM HEPES pH 7.5, 150 mM NaCl, 0.05% Tween 20. Untagged TNF was preincubated with 10 nM compound for 6 hr in 10 mM HEPES pH 7.5, 150 mM NaCl, 0.05 Tween 20, 2% DMSO at 25° C. Samples were then injected over the folate receptor surface at 30 μl/min with an association time of 110 s and a dissociation time of 600 s. Surfaces were regenerated with 4 M MgCl2 at 30 μl/mm for 30 s. The maximum measured response was normalized by comparison to the maximum expected response for each compound.
For orientation: In SPR one partner is held on a chip, and binding of the other changes the refractive index at the surface.

The target in test [3] is T1, folate receptor beta. Kind of test: Folate receptor binding assay (fluorescence polarization). Conditions: 2.5 nM folate receptor beta, 2 nM FR-Cy probe, 2 hr incubation; read-out: FOLR2-FP. On the procedure:
Folate receptor binding was measured in black 96-well plates using a fluorescence polarization assay. A fluorescent probe consisting of a folate analog linked to Cy5 (FR-Cy) was custom synthesized.
Test compounds were resuspended in DMSO and 3-fold serial dilutions were made from 300-0.015 μM (100× final concentrations). Binding reactions were conducted in 200 μl final volume in 20 mM Hepes (pH 7.5) 250 mM NaCl 0.0150 Tween-20 1% DMSO with 2.5 nM folate receptor beta (Acro Biosystems) and 2 nM probe. Fluorescence polarization was measured using λex=620 nm, λem=688 nm on an Envision plate reader (Perkin Elmer) after 2 hr incubation time. Dose responses were conducted in duplicate and normalized to the response with DMSO (high) and 1 μM folic acid (low) on each plate. IC50 values were determined by fitting to 4-parameter curves in GraphPad Prism.
Background: In fluorescence polarisation assays a small probe gives low polarisation when free and higher when bound to something large.

Sequence of TNFα (P01375 77-233): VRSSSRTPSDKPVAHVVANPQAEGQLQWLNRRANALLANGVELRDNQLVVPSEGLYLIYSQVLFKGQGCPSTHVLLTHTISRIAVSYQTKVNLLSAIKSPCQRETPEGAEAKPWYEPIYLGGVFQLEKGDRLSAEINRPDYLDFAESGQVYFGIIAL
Sequence of TNFα and streptavidin immobilized FOL2R (P14207 17-230): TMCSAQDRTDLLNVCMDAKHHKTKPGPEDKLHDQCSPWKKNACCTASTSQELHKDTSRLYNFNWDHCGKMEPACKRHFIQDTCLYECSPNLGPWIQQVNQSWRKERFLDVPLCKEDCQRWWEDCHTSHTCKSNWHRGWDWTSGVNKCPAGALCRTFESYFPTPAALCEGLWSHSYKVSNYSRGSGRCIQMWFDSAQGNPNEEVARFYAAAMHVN
Sequence of TNFα and streptavidin immobilized FOL2R (P01375 77-233): as the sequence (P01375 77-233) above
T1 sequence (P14207 17-255): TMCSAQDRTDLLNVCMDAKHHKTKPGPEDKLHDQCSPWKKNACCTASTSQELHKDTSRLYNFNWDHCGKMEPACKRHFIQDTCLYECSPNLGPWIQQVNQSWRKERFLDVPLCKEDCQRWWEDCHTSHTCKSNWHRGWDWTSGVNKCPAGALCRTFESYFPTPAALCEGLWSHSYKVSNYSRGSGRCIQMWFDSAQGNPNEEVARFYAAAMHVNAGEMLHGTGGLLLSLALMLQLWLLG

Turning to `Cc1nc2cc(F)c(-c3cnc(N4CCN(C(=O)COCCOCCN5CCC6(CC5)CCN(C(=O)CC[C@H](NC(=O)c5ccc(NCc7cnc8nc(N)nc(O)c8n7)cc5)C(=O)O)CC6)CC4)nc3)nc2c(N[C@H](C)c2cc(C#N)ccc2F)c1Cl` [Compound I-84, (S)-2-(4-(((2-amino-4-hydroxypteridin-6-yl)methyl)amino)benzamido)-5-(9-(2-(2-(2-(4-(5-(7-chloro-8-(((R)-1-(5-cyano-2-fluorophenyl)ethyl)amino)-3-fluoro-6-methyl-1,5-naphthyridin-2-yl)pyrimidin-2-yl)piperazin-1-yl)-2-oxoethoxy)ethoxy)ethyl)-3,9-diazaspiro[5.5]undecan-3-yl)-5-oxopentanoic acid], on folate receptor beta [1], the Rmax is reported as 19.7 RU, the kd amounted to 0.000153 s⁻¹, the Kd was determined as 0.0059 nM and the kon was found to be 2.59e+07 M⁻¹ s⁻¹. For the same compound, the IC50 on TNFα was determined as 9 nM. In test [2], the “TC 60 nM taggless TNF normalized” value is listed as 10.8%, the “TC 150 nM- tagless TNF Normalized” value is 17.4% and the “TC 300 nM- tagless TNF Normalized” value stood at 17.3%. Moreover, the IC50 at folate receptor beta [3] turned out to be 6.9 nM.

For the compound `Cc1nc2cc(F)c(-c3cnc(N4CCN(C(=O)COCCOCCOCCOCCOCCOCCn5cc(CC[C@H](NC(=O)c6ccc(N(C)Cc7ccc8nc(N)[nH]c(=O)c8c7)cc6)C(=O)O)nn5)CC4)nc3)nc2c(N[C@H](C)c2cc(C#N)ccc2F)c1Cl` [Compound I-85, (S)-2-(4-(((2-amino-4-oxo-3,4-dihydroquinazolin-6-yl)methyl)(methyl)amino)benzamido)-4-(1-(20-(4-(5-(7-chloro-8-(((R)-1-(5-cyano-2-fluorophenyl)ethyl)amino)-3-fluoro-6-methyl-1,5-naphthyridin-2-yl)pyrimidin-2-yl)piperazin-1-yl)-20-oxo-3,6,9,12,15,18-hexaoxaicosyl)-1H-1,2,3-triazol-4-yl)butanoic acid], at folate receptor beta [1], the Rmax is 11.9 RU, the kd came out at 0.00112 s⁻¹, the Kd came out at 0.088 nM and the kon came out at 1.27e+07 M⁻¹ s⁻¹. The IC50 on TNFα worked out at 13 nM. In test [2], the “TC 60 nM taggless TNF normalized” value is on record as 9.7% and the “TC 300 nM- tagless TNF Normalized” value is 15.1%. The IC50 on folate receptor beta [3] worked out at 12 nM.

Take `Cc1nc2cc(F)c(-c3cnc(N4CCN(C(=O)COCCOCCOCCOCCOCCOCCn5cc(CC[C@H](NC(=O)c6ccc(CCc7ccc8nc(N)nc(O)c8c7)cc6)C(=O)O)nn5)CC4)nc3)nc2c(N[C@H](C)c2cc(C#N)ccc2F)c1Cl` [Compound I-82, (S)-2-(4-(2-(2-amino-4-hydroxyquinazolin-6-yl)ethyl)benzamido)-4-(1-(20-(4-(5-(7-chloro-8-(((R)-1-(5-cyano-2-fluorophenyl)ethyl)amino)-3-fluoro-6-methyl-1,5-naphthyridin-2-yl)pyrimidin-2-yl)piperazin-1-yl)-20-oxo-3,6,9,12,15,18-hexaoxaicosyl)-1H-1,2,3-triazol-4-yl)butanoic acid]: at folate receptor beta [1], the Rmax stood at 14.5 RU, the kd was 0.000591 s⁻¹, the Kd worked out at 0.031 nM and the kon stood at 1.91e+07 M⁻¹ s⁻¹. Further, the IC50 on TNFα came out at 19 nM. Further, in test [2], the “TC 60 nM taggless TNF normalized” value came to 15.7% and the “TC 300 nM- tagless TNF Normalized” value is reported as 24.9%. For the same compound, the IC50 on folate receptor beta [3] is 4.9 nM.

Take `Cc1nc2cc(F)c(-c3cnc(N4CCN(C(=O)COCCOCCOCCOCCOCCn5cc(CC[C@H](NC(=O)c6ccc(NCc7cnc8nc(N)nc(O)c8n7)cc6)C(=O)O)nn5)CC4)nc3)nc2c(N[C@H](C)c2cc(C#N)ccc2F)c1Cl` [Compound I-89, (S)-2-(4-(((2-amino-4-hydroxypteridin-6-yl)methyl)amino)benzamido)-4-(1-(17-(4-(5-(7-chloro-8-(((R)-1-(5-cyano-2-fluorophenyl)ethyl)amino)-3-fluoro-6-methyl-1,5-naphthyridin-2-yl)pyrimidin-2-yl)piperazin-1-yl)-17-oxo-3,6,9,12,15-pentaoxaheptadecyl)-1H-1,2,3-triazol-4-yl)butanoic acid]: on folate receptor beta [1], the Rmax came out at 31.1 RU, the kd came out at 0.000337 s⁻¹, the Kd was 0.223 nM and the kon was 1.51e+06 M⁻¹ s⁻¹. Also, the IC50 on TNFα came out at 42 nM. Moreover, in test [2], the “TC 60 nM taggless TNF normalized” value is 11.6% and the “TC 300 nM- tagless TNF Normalized” value amounted to 15%. In addition, the IC50 on folate receptor beta [3] was found to be 8.4 nM.

Regarding `Cc1nc2cc(F)c(-c3cnc(N4CCN(C(=O)COCCOCCOCCOCCOCCOCCn5cc(CC[C@H](NC(=O)c6ccc(N(C)Cc7cnc8nc(N)[nH]c(=O)c8n7)cc6)C(=O)O)nn5)CC4)nc3)nc2c(N[C@H](C)c2cc(C#N)ccc2F)c1Cl` [Compound I-86, (S)-2-(4-(((2-amino-4-oxo-3,4-dihydropteridin-6-yl)methyl)(methyl)amino)benzamido)-4-(1-(20-(4-(5-(7-chloro-8-(((R)-1-(5-cyano-2-fluorophenyl)ethyl)amino)-3-fluoro-6-methyl-1,5-naphthyridin-2-yl)pyrimidin-2-yl)piperazin-1-yl)-20-oxo-3,6,9,12,15,18-hexaoxaicosyl)-1H-1,2,3-triazol-4-yl)butanoic acid], at folate receptor beta [1], the Rmax was determined as 18.1 RU, the kd came to 0.000344 s⁻¹, the Kd stood at 0.023 nM and the kon amounted to 1.53e+07 M⁻¹ s⁻¹. The IC50 at TNFα is 17 nM. In addition, in test [2], the “TC 150 nM- tagless TNF Normalized” value is 20.1% and the “TC 300 nM- tagless TNF Normalized” value is 22.8%. The IC50 at folate receptor beta [3] turned out to be 7.7 nM.

In the case of `Cc1nc2cc(F)c(-c3cnc(N4CCN(C(=O)COCCn5cc(COCCOCCOCCOCCNC(=O)CC[C@H](NC(=O)c6ccc(SCCc7cc8c(=O)[nH]c(N)nc8[nH]7)cc6)C(=O)O)nn5)CC4)nc3)nc2c(N[C@H](C)c2cc(C#N)ccc2F)c1Cl` [Compound I-98, (S)-18-(4-((2-(2-amino-4-oxo-4,7-dihydro-3H-pyrrolo[2,3-d]pyrimidin-6-yl)ethyl)thio)benzamido)-1-(1-(2-(2-(4-(5-(7-chloro-8-(((R)-1-(5-cyano-2-fluorophenyl)ethyl)amino)-3-fluoro-6-methyl-1,5-naphthyridin-2-yl)pyrimidin-2-yl)piperazin-1-yl)-2-oxoethoxy)ethyl)-1H-1,2,3-triazol-4-yl)-15-oxo-2,5,8,11-tetraoxa-14-azanonadecan-19-oic acid], at folate receptor beta [1], the Rmax was determined as 14.8 RU, the kd turned out to be 0.000774 s⁻¹, the Kd turned out to be 0.172 nM and the kon came to 4.49e+06 M⁻¹ s⁻¹. The IC50 on TNFα came out at 19 nM. Further, in test [2], the “TC 150 nM- tagless TNF Normalized” value is reported as 16.7% and the “TC 300 nM- tagless TNF Normalized” value stood at 19.4%. The IC50 on folate receptor beta [3] worked out at 133 nM.

The term Kd denotes the free concentration of one partner at which half of the binding sites on the other are occupied at equilibrium, for simple one-to-one binding.

The values are drawn from patent US20250127913A1, “BIFUNCTIONAL FOLATE RECEPTOR BINDING COMPOUNDS” (LYCIA THERAPEUTICS, INC., priority 2021, published 2025).
